The values that follow come from US20140303322A1, “ANTIMICROBIAL AND BACTERIOSTATIC-MODIFIED POLYMERS FOR CELLULOSE FIBRES” (priority 2012, published 2014).

Each structure is given as a SMILES string. Marks after values point to notes of the source that are not given here.

For one data set, the system named is E. coli ATCC 11229. Description: Shaking flask method, antibiotics/CPβCD complexes on cellulose fibres. The format is cell-based, Escherichia coli. The note with it: CPβCD complex.
Data set [1] in a line: Water solubility of triclosan and butylparaben (UV spectrophotometer). The note with it: FIGS. 13 and 14; complex with CPβCD. It is filed as physicochemical. From the text:
The triclosan/CPβCD or butylparaben/CPβCD complex can be prepared by adopting the procedures described by Arias et al. (1997)^7 and Mura et al. (2002)^8. […] The solubility of triclosan or butylparaben can be determined by a UV spectrophotometer at wavelength of 282 nm and 256 nm, respectively.

Where [2] appears, read: concentration 0.03 % wt, contacting time 1 hour.
The mark [3] stands for this setting: concentration 0.06 % wt, contacting time 1 hour.
Setting [4] is: concentration 0.125 % wt, contacting time 1 hour.
[5] abbreviates: concentration 0.25 % wt, contacting time 1 hour.
Setting [6] is: concentration 0.5 % wt, contacting time 1 hour.
Setting [7] is: concentration 1 % wt, contacting time 1 hour.
The mark [8] stands for this setting: contacting time 0.5 min, antibiotic 0.5% wt based on cellulose fibres.
Setting [9] is: contacting time 1 min, antibiotic 0.5% wt based on cellulose fibres.
Setting [10] is: contacting time 3 min, antibiotic 0.5% wt based on cellulose fibres.
The mark [11] stands for this setting: contacting time 10 min, antibiotic 0.5% wt based on cellulose fibres.
The mark [12] stands for this setting: contacting time 30 min, antibiotic 0.5% wt based on cellulose fibres.
Setting [13] is: contacting time 60 min, antibiotic 0.5% wt based on cellulose fibres.

As to `Oc1cc(Cl)ccc1Oc1ccc(Cl)cc1Cl` [Triclosan], the “Growth inhibition (%)” value in the data set on E. coli ATCC 11229 (setting [2]) was 23.2%; in the data set with E. coli ATCC 11229 (setting [3]) it was 50.2%; with E. coli ATCC 11229 (setting [4]), 68.1%; in the data set with E. coli ATCC 11229 (setting [5]) it was 87.1%; with E. coli ATCC 11229 (setting [6]), 99.7%; in the data set on E. coli ATCC 11229 (setting [7]), 100%. In addition, the “Growth inhibition (%)” value in the data set on E. coli ATCC 11229 (setting [8]) amounted to 24.6%; with E. coli ATCC 11229 (setting [9]), 37.7%; in the data set on E. coli ATCC 11229 (setting [10]), 61.0%; with E. coli ATCC 11229 (setting [11]), 95.8%; with E. coli ATCC 11229 (setting [12]), 99.6%; in the data set on E. coli ATCC 11229 (setting [13]), 100%. Further, in data set [1], the “water solubility as a function of CPβCD content” value is “linear increased with the CPβCD content”.
As to `CCCCOC(=O)c1ccc(O)cc1` [Butylparaben, butylparaben], the “Growth inhibition (%)” value in the data set on E. coli ATCC 11229 (setting [2]) is 4.54%; with E. coli ATCC 11229 (setting [3]), 9.09%; with E. coli ATCC 11229 (setting [4]), 54.6%; in the data set with E. coli ATCC 11229 (setting [5]), 81.8%; in the data set on E. coli ATCC 11229 (setting [6]) it was 99.9%; in the data set on E. coli ATCC 11229 (setting [7]), 100%. In addition, the “Growth inhibition (%)” value was 50.0% in the data set with E. coli ATCC 11229 (setting [8]); 61.9% in the data set on E. coli ATCC 11229 (setting [9]); 95.8% in the data set on E. coli ATCC 11229 (setting [10]); 100**** % with E. coli ATCC 11229 (setting [11]); 100% in the data set with E. coli ATCC 11229 (setting [12]); 100% with E. coli ATCC 11229 (setting [13]). Further, the “water solubility as a function of CPβCD content” value in data set [1] was “linear increased with the CPβCD content”.
